The subject of experiment [1] is MM3MG cells stably expressing HER2d16. Conditions: MM3MG-HER2d16 s.c. in SCID-Beige mice; for effect of lapatinib on growth of HER2d16 tumors: lapatinib oral gavage 75 mg/kg, 5 times a week, from day 8, FIG. 7, 75 mg/kg. Here is the method: (§1) MM3MG cells stably expressing the indicated genes were implanted subcutaneously into SCID-Beige mice (100,000 per mouse in PBS) at days 0. Mice were treated weekly with T-DM1 via tail vein injection (200 μg/mouse) beginning at day 10. Tumor growth was measured by calipers at the indicated days (N=5, bars represent SE).
MM3MG cells stably expressing the indicated genes were implanted subcutaneously into SCID-Beige mice (100,000 per mouse in PBS) at days 0. Mice were treated […] with lapatinib by oral gavage (75 mg/kg/5 days week) at day 8. Tumor growth was measured by calipers at the indicated days (N=5, bars represent SE).
(§2) Experiments using BALB/c, and SCID-Beige mice (obtained from Jackson Labs) were done in accordance with Duke Institutional Animal Care and Use Committee-approved protocols. For tumor vaccine experiments, Human HER2-transgenic mice (kindly provided by Dr. Wei-Zen Wei, Wayne State University, Detroit, MI^4) were crossed with BALB/c mice (Jackson Labs) to permit implantation of MM3MG-HER2d16 tumors and genotyped by PCR as previously described^5. In immnodeficient animals, stable cells were injected s.c. into the flank of SCID-beige mice (at indicated cells/animal) and measured as indicated. Tumor measurements were made using calipers and volumes calculated using the formula [v=width×width×(length/2)] whereas statistical differences were calculated using a mixed effects regression model using autoregressive covariance. In treatment experiments, T-DM1 was weekly delivered via tail vein (200 μg/mouse) while Lapatinib was given by oral gavage (5 times a week, 75 mg/kg).

The test system of the next experiment is HER2-WT MM3MG. Conditions: MM3MG-HER2-WT s.c. in SCID-Beige mice; T-DM1 weekly via tail vein, 200 μg/mouse, from day 10; FIG. 6. Here is the method:
as §1, §2

Entries after “also recorded” stand apart in the source; their conditions may differ. Like-named read-outs stand apart in the source and are kept apart here.

For the compound `CS(=O)(=O)CCNCc1ccc(-c2ccc3ncnc(Nc4ccc(OCc5cccc(F)c5)c(Cl)c4)c3c2)o1` [Lapatinib], the “effect of lapatinib on growth of HER2d16 tumors” value is “only had a minor effect” in experiment [1] and “resistant” in experiment [1] (listed as lapatinib).
Take Trastuzumab-DM1 [T-DM1]: in experiment [1] (T-DM1 weekly via tail vein, 200 μg/mouse, from day 10, FIG. 6), the “effect of T-DM1 on growth of HER2d16 tumors” value was “more resistant; also recorded: only weakly impacted”. Further, the “effect of T-DM1 on growth of HER2-WT MM3MG tumors” value in the experiment with HER2-WT MM3MG is “significantly suppressed”.

(Values after patent US12083172B2, “Vaccines against an oncogenic isoform of HER2 (ErbB2) and methods of using the same” (Duke University, priority 2014, dated 2024).)
